Assay results from patent US20260125382A1, “COMPOUNDS FOR INHIBITING OR DEGRADING CDK2 AND/OR CDK9 AND MEDICINAL USE THEREOF” (KOREA RESEARCH INSTITUTE OF CHEMICAL TECHNOLOGY, priority 2022, published 2026).

Legend:
CDK2 = target: T1, CDK2 (Homo sapiens, UniProt P24941); test: CDK protein degradation activity (Western blotting), CDK2; type: cell-based; conditions: MDA-MB-231 cells, 16 hours, Western blot
T1 construct: endogenous in cells; host or cells: MDA-MB-231
In short: (§1)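 MDA-MB-231 cells treated 16 h with compound at 100 nM, 1 μM or 10 μM, with DMSO as control. Lysates run on SDS-PAGE and immunoblotted for CDK2, CDK9 and tubulin; band levels quantified by densitometry.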

CDK9 = target: T2, CDK9 (Homo sapiens, UniProt P50750); test: CDK protein degradation activity (Western blotting), CDK9; type: cell-based; conditions: MDA-MB-231 cells, 16 hours, Western blot
T2 construct: endogenous in cells; host or cells: MDA-MB-231
In short: as §1

T2 sequence (P50750 whole entry): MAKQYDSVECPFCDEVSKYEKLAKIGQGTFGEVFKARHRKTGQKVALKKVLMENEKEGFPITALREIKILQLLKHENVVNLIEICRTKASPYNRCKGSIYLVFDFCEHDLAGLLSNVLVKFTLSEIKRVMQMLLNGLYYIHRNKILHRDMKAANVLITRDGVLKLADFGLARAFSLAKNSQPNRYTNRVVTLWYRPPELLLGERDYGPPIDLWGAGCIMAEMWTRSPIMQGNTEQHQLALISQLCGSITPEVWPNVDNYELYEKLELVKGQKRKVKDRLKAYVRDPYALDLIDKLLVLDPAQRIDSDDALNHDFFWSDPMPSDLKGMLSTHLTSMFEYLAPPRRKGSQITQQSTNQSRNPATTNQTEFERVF

Enzyme degradation CDK2 (% remaining) @ 0.1 μM (CDK2) | Enzyme degradation CDK2 (% remaining) @ 1 μM (CDK2) | Enzyme degradation CDK2 (% remaining) @ 10 μM (CDK2) | Enzyme degradation CDK9 (% remaining) @ 0.1 μM (CDK9) | Enzyme degradation CDK9 (% remaining) @ 1 μM (CDK9) | Enzyme degradation CDK9 (% remaining) @ 10 μM (CDK9) | Compound
20/20/20% | 20/20/20% | 20/20/20% | 0/0/0% | 0/0/0% | 0/0/0% | Cc1cccc(C(=O)NC2CC(n3cnc4c(Nc5ccc(N6CCN(C7CC8(CCN(c9ccc%10c(c9)C(=O)N([C@H]9CCC(=O)NC9=O)C%10=O)CC8)C7)CC6)cc5)ncnc43)C2)n1 (stereo partly drawn) [Compound 384, N-((1s,3s)-3-(6-((4-(4-(7-(2-(2,6-dioxopiperidin-3-yl)-1,3-dioxoisoindolin-5-yl)-7-azaspiro[3.5]nonan-2-yl)piperazin-1-yl)phenyl)amino)-9H-purin-9-yl)cyclobutyl)-6-methylpicolinamide]
40% | 30% | 30% | 0/0/0% | 0/0/0% | 0/0/0% | Cc1cccc(C(=O)N[C@H]2C[C@@H](n3cnc4c(Nc5ccc(N6CCN(C7CC8(CCN(c9cc%10c(cc9F)C(=O)N([C@H]9CCC(=O)NC9=O)C%10=O)CC8)C7)CC6)cc5)ncnc43)C2)n1 [Compound 385, N-((1s,3s)-3-(6-((4-(4-(7-(2-(2,6-dioxopiperidin-3-yl)-6-fluoro-1,3-dioxoisoindolin-5-yl)-7-azaspiro[3.5]nonan-2-yl)piperazin-1-yl)phenyl)amino)-9H-purin-9-yl)cyclobutyl)-6-methylpicolinamide]
20% | 10% | 10% | 0/0/0% | 0/0/0% | 0/0/0% | Cc1cccc(C(=O)N[C@H]2C[C@@H](n3cnc4c(Nc5ccc(N6CCN(C7CC8(CCN(c9ccc%10nnn([C@H]%11CCC(=O)NC%11=O)c(=O)c%10c9)CC8)C7)CC6)cc5)ncnc43)C2)n1 [Compound 386, N-((1s,3s)-3-(6-((4-(4-(7-(3-(2,6-dioxopiperidin-3-yl)-4-oxo-3,4-dihydrobenzo[d][1,2,3]triazin-6-yl)-7-azaspiro[3.5]nonan-2-yl)piperazin-1-yl)phenyl)amino)-9H-purin-9-yl)cyclobutyl)-6-methylpicolinamide]
50% | 40% | 40% | 20% | 0% | 0% | Cc1cccc(C(=O)N[C@H]2C[C@@H](n3cnc4c(Nc5ccc(N6CCN(C7CC8(CCN(C(=O)C9CN(c%10ccc%11c(c%10)C(=O)N(C%10CCC(=O)NC%10=O)C%11=O)C9)CC8)C7)CC6)cc5)ncnc43)C2)n1 (stereo partly drawn) [Compound 387, N-((1s,3s)-3-(6-((4-(4-(7-(1-(2-(2,6-dioxopiperidin-3-yl)-1,3-dioxoisoindolin-5-yl)azetidin-3-carbonyl)-7-azaspiro[3.5]nonan-2-yl)piperazin-1-yl)phenyl)amino)-9H-purin-9-yl)cyclobutyl)-6-methylpicolinamide]
40/40/40% | 40/40/40% | 40/40/40% | 0/0/0% | 0/0/0% | 0/0/0% | Cc1cccc(C(=O)NC2CC(n3cnc4c(Nc5ccc(N6CCN(CCC7CCN(C(=O)C8CN(c9ccc%10c(c9)C(=O)N([C@H]9CCC(=O)NC9=O)C%10=O)C8)CC7)CC6)cc5)ncnc43)C2)n1 (stereo partly drawn) [Compound 388, N-((1s,3s)-3-(6-((4-(4-(2-(1-(1-(2-(2,6-dioxopiperidin-3-yl)-1,3-dioxoisoindolin-5-yl)azetidin-3-carbonyl)piperidin-4-yl)ethyl)piperazin-1-yl)phenyl)amino)-9H-purin-9-yl)cyclobutyl)-6-methylpicolinamide]
40% | 30% | 30% | 0/0/0% | 0/0/0% | 0/0/0% | Cc1cccc(C(=O)N[C@H]2C[C@@H](n3cnc4c(Nc5ccc(N6CCN(CCC7CCN(C(=O)C8CCN(c9ccc%10c(c9)C(=O)N([C@H]9CCC(=O)NC9=O)C%10=O)CC8)CC7)CC6)cc5)ncnc43)C2)n1 [Compound 389, N-((1s,3s)-3-(6-((4-(4-(2-(1-(1-(2-(2,6-dioxopiperidin-3-yl)-1,3-dioxoisoindolin-5-yl)piperidin-4-carbonyl)piperidin-4-yl)ethyl)piperazin-1-yl)phenyl)amino)-9H-purin-9-yl)cyclobutyl)-6-methylpicolinamide]
20/20/20% | 20/20/20% | 20/20/20% | 10% | 0% | 0% | O=C1CC[C@H](N2C(=O)c3ccc(N4CCC(CN5CCN(c6ccc(Nc7ncnc8c7ncn8[C@H]7C[C@@H](NC(=O)c8cccc(F)n8)C7)cc6)CC5)CC4)cc3C2=O)C(=O)N1 [Compound 390, N-((1s,3s)-3-(6-((4-(4-((1-(2-(2,6-dioxopiperidin-3-yl)-1,3-dioxoisoindolin-5-yl)piperidin-4-yl)methyl)piperazin-1-yl)phenyl)amino)-9H-purin-9-yl)cyclobutyl)-6-fluoropicolinamide]
10/10/10% | 10/10/10% | 10/10/10% | 0/0/0% | 0/0/0% | 0/0/0% | O=C1CCC(N2C(=O)c3ccc(N4CCC(CN5CCN(c6ccc(Nc7ncnc8c7ncn8[C@H]7C[C@@H](NC(=O)c8cccc(Cl)n8)C7)cc6)CC5)CC4)cc3C2=O)C(=O)N1 (stereo partly drawn) [Compound 391, 6-chloro-N-((1s,3s)-3-(6-((4-(4-((1-(2-(2,6-dioxopiperidin-3-yl)-1,3-dioxoisoindolin-5-yl)piperidin-4-yl)methyl)piperazin-1-yl)phenyl)amino)-9H-purin-9-yl)cyclobutyl)picolinamide]
0% | 0% | 10% | 0/0/0% | 0/0/0% | 0/0/0% | N#Cc1cccc(C(=O)NC2CC(n3cnc4c(Nc5ccc(N6CCN(CC7CCN(c8ccc9c(c8)C(=O)N([C@H]8CCC(=O)NC8=O)C9=O)CC7)CC6)cc5)ncnc43)C2)n1 (stereo partly drawn) [Compound 392, 6-cyano-N-((1s,3s)-3-(6-((4-(4-((1-(2-(2,6-dioxopiperidin-3-yl)-1,3-dioxoisoindolin-5-yl)piperidin-4-yl)methyl)piperazin-1-yl)phenyl)amino)-9H-purin-9-yl)cyclobutyl)picolinamide]
